# Patent publication US4241069A, “3-Methylene flavanones and 3-methylene chromanones” (Miles Laboratories, Inc., priority 1979, dated 1980)
# Columns and labels:
# A. fumigatus NRRL 163 = test: MIC, agar incorporation method; type: cell-based; conditions: Aspergillus fumigatus, NRRL163, NRRL 163; 32° C., 48-72 hours; read-out: Minimal Inhibitory Concentration
# Method: (§1) The compounds of the present invention were tested for their ability to inhibit the growth of microorganisms by in vitro tests. Generally the in vitro tests involve growing representative microorganisms under conditions favorable to such growth and measuring the effectiveness of one or more compounds in inhibiting or destroying the growth of the microorganisms. The microorganisms used include representative bacteria, fungi and yeasts.
# (§2) A representative selection of the test microorganisms were cultured in a nutrient broth, such as, for example, Eugon, commercially available from Difco Laboratories, Detroit, Michigan. Bacteria and Candida species were cultured for 24 hours at 32°-37° C. and fungi were cultured for approximately one week at 32° C. Inocula were prepared by suspending the growth or spores from a slant culture in sufficient sterile normal (0.9 percent) saline or Eugon broth, to yield cell or spore concentrations of 1,000,000 cells per milliliter. Anaerobic bacteria were cultured for 48-72 hours at 32°-37° C. in a thioglycollate containing medium, for example, Fluid Thioglycollate medium or NIH thioglycollate broth, commercially available from Difco Laboratories.
# (§3) The compounds of the present invention were tested for activity against bacteria, yeasts and fungi by the agar incorporation method described below. MA 1347, 3-(dimethylaminomethyl)flavanone (disclosed in U.S. Pat. No. 3,753,985) was used as a comparative standard along with controls for each solvent system used.
# (§4) A series of agar plates containing two-fold dilutions of each compound to be tested, ranging in concentration from 100 to 3.1 mcg/ml of agar medium was prepared. Aliquots of each concentration (100, 50, 25, 12.5, 6.2, and 3.1) prepared in N,N-dimethylformamide or 50 percent aqueous DMF were added to liquid Eugon agar at 48° C. (one part test solution to 100 parts agar). In some cases, tests with further dilutions to 0.125 mcg/ml were conducted. The agar medium, containing the 3-methylene flavanone or chromanone compound to be tested, was then dispensed into petri dishes and allowed to solidify. The solidified plates were kept overnight at room temperatures to dry the surface of the agar.
# (§5) The agar plates were then inoculated with a drop of the standardized cell or spore suspension. Inoculated plates were incubated at 32° C. The inhibition end-point or minimum inhibitory concentration (MIC) shown in Table D represent the lowest concentration of test compound which inhibited the growth of the microorganism. Visual determination of growth inhibition was used. Bacteria and yeast end-points were determined after 24 hours incubation; molds, dermatophytes and anaerobes after 48-72 hours incubation. MIC values shown as ranges represent the extremes found in repeat assays. Virtually all such values were written plus or minus one dilution, the accepted variation of a two-fold dilution assay.
# C. albicans NRRL Y-477 = test: MIC, agar incorporation method; type: cell-based; conditions: Candida albicans, NRRLY477, 32° C., 24 hours, read-out: Minimal Inhibitory Concentration
# Method: as §1, §2, §3, §4, §5
# C. guillermondii VM 42 = test: MIC, agar incorporation method; type: cell-based; conditions: 32° C., 24 hours; read-out: Minimal Inhibitory Concentration
# Method: as §1, §2, §3, §4, §5
# C. krusei VM 29B = test: MIC, agar incorporation method; type: cell-based; conditions: Pichia kudriavzevii, VM29B; 32° C., 24 hours; read-out: Minimal Inhibitory Concentration
# Method: as §1, §2, §3, §4, §5
# C. tropicalis NRRL Y1410 = test: MIC, agar incorporation method; type: cell-based; conditions: Candida tropicalis, NRRLY1410; 32° C., 24 hours; read-out: Minimal Inhibitory Concentration
# Method: as §1, §2, §3, §4, §5
# [1] = system: Candida albicans ATCC 10231; test: MIC, agar incorporation method; type: cell-based; conditions: ATCC10231, C. albicans ATCC 10231, 32° C., 24 hours, read-out: Minimal Inhibitory Concentration
# Method: as §1, §2, §3, §4, §5
# [2] = system: Escherichia coli ATCC 8739; test: MIC, agar incorporation method; type: cell-based; conditions: ATCC8739, 32° C., 24 hours, read-out: Minimal Inhibitory Concentration
# Method: as §1, §2, §3, §4, §5
# [3] = system: Microsporum gypseum ATCC 14683; test: MIC, agar incorporation method; type: cell-based; conditions: Nannizzia gypsea, ATCC14683, 32° C., 48-72 hours; read-out: Minimal Inhibitory Concentration
# Method: as §1, §2, §3, §4, §5
# [4] = system: Pseudomonas aeruginosa ATCC 14502; test: MIC, agar incorporation method; type: cell-based; conditions: ATCC14502, 32° C., 24 hours, read-out: Minimal Inhibitory Concentration
# Method: as §1, §2, §3, §4, §5
# [5] = system: Staphylococcus aureus ATCC 6538; test: MIC, agar incorporation method; type: cell-based; conditions: Staphylococcus aureus, ATCC6538; S. aureus ATCC 6538; 32° C., 24 hours; read-out: Minimal Inhibitory Concentration
# Method: as §1, §2, §3, §4, §5
# [6] = system: Streptococcus faecalis ATCC 10541; test: MIC, agar incorporation method; type: cell-based; conditions: Enterococcus faecalis, ATCC10541; 32° C., 24 hours; read-out: Minimal Inhibitory Concentration
# Method: as §1, §2, §3, §4, §5
# T. mentagrophytes CDC = test: MIC, agar incorporation method; type: cell-based; conditions: Trichophyton mentagrophytes, 32° C., 48-72 hours, read-out: Minimal Inhibitory Concentration
# Method: as §1, §2, §3, §4, §5
# T. mentagrophytes TM-2 = test: MIC, agar incorporation method; type: cell-based; conditions: Trichophyton mentagrophytes, TM2, 32° C., 48-72 hours, read-out: Minimal Inhibitory Concentration
# Method: as §1, §2, §3, §4, §5
# T. tonsurans ATCC 10217 = test: MIC, agar incorporation method; type: cell-based; conditions: Trichophyton tonsurans, ATCC10217; 32° C., 48-72 hours; read-out: Minimal Inhibitory Concentration
# Method: as §1, §2, §3, §4, §5
# [7] = system: Trichophyton mentagrophytes ATCC 4807; test: MIC, agar incorporation method; type: cell-based; conditions: ATCC4807, 32° C., 48-72 hours, read-out: Minimal Inhibitory Concentration
# Method: as §1, §2, §3, §4, §5
# S. aureus NRRL B2747 [8] = test: MIC, agar incorporation method; type: cell-based, Staphylococcus aureus; conditions: Staphylococcus aureus, NRRLB2747, 32° C., 24 hours, read-out: Minimal Inhibitory Concentration
# Method: as §1, §2, §3, §4, §5
# [9] = system: Bacteriodides fragilis ATCC 8482; test: MIC, agar incorporation method, anaerobic; type: cell-based; conditions: 48 hours at 35° C., GasPak Anaerobic Jar, read-out: Minimal Inhibitory Concentration
# Method: as §1, §2, §3, §4, §5
# (§6) *Anaerobic: 48 hours incubation at 35° C. GasPak Anaerobic Jar
# [10] = system: Clostridium sporogenes ATCC 11437; test: MIC, agar incorporation method, anaerobic; type: cell-based; conditions: ATCC11437, 48 hours at 35° C., GasPak Anaerobic Jar, read-out: Minimal Inhibitory Concentration
# Method: as §1, §2, §3, §4, §5, §6
# [11] = system: Propionobacterium acnes ATCC 6919; test: MIC, agar incorporation method, anaerobic; type: cell-based; conditions: 48 hours at 35° C., GasPak Anaerobic Jar, read-out: Minimal Inhibitory Concentration
# Method: as §1, §2, §3, §4, §5, §6
# S. aureus NRRL B2747 [12] = test: MIC, agar incorporation method, anaerobic; type: cell-based; conditions: Staphylococcus aureus, NRRLB2747, 48 hours at 35° C., GasPak Anaerobic Jar, read-out: Minimal Inhibitory Concentration
# Method: as §1, §2, §3, §4, §5, §6
# A. fumigatus NRRL 165 = test: MIC, agar incorporation method; type: cell-based; conditions: Aspergillus fumigatus, NRRL165, 32° C., 48-72 hours, read-out: Minimal Inhibitory Concentration
# Method: as §1, §2, §3, §4, §5
# [13] = system: Aspergillus niger ATCC 16404; test: MIC, agar incorporation method; type: cell-based; conditions: ATCC16404, 32° C., 48-72 hours, read-out: Minimal Inhibitory Concentration
# Method: as §1, §2, §3, §4, §5
# T. rubrum ATCC 10218 = test: MIC, agar incorporation method; type: cell-based; conditions: Trichophyton rubrum, ATCC10218; 32° C., 48-72 hours; read-out: Minimal Inhibitory Concentration
# Method: as §1, §2, §3, §4, §5
Structure (SMILES),MIC (C. albicans NRRL Y-477) [µg/mL],MIC (C. guillermondii VM 42) [µg/mL],MIC (C. krusei VM 29B) [µg/mL],MIC (C. tropicalis NRRL Y1410) [µg/mL],MIC [1] [µg/mL],MIC [2] [µg/mL],MIC [3] [µg/mL],MIC [4] [µg/mL],MIC [5] [µg/mL],MIC [6] [µg/mL],MIC (T. mentagrophytes CDC) [µg/mL],MIC (T. mentagrophytes TM-2) [µg/mL],MIC [7] [µg/mL],MIC (S. aureus NRRL B2747 [8]) [µg/mL],MIC (A. fumigatus NRRL 165) [µg/mL],MIC [13] [µg/mL],MIC (T. rubrum ATCC 10218) [µg/mL],other results
"C=C1C(=O)c2ccccc2OC1c1ccccc1 (stereo not drawn) [Ex. 1, 3-methylene flavanone]",50,100,50,100,50,> 100,6.2 to 12.5,> 100,6.2,100,12.5,12.5,12.5,12.5,,,,MIC (A. fumigatus NRRL 163): 6.2 µg/mL; MIC (T. tonsurans ATCC 10217): 6.2 µg/mL; MIC [9]: 1.56 µg/mL; MIC [10]: 12.5 µg/mL; MIC [11]: 12.5 µg/mL; MIC (S. aureus NRRL B2747 [12]): 25 µg/mL
"C=C1C(=O)c2ccccc2OC1c1ccc(N(C)C)cc1 (stereo not drawn) [Ex. 11, 4'-dimethylamino-3-methylene flavanone]",> 100,> 100,100,> 100,> 100,> 100,25,> 100,50,> 100,25,25,25,50,> 100,> 100,12.5,
"C=C1C(=O)c2ccccc2OC1c1ccc(C#N)cc1 (stereo not drawn) [Ex. 16, 4'-cyano-3-methylene flavanone]",50,100,50,50,50,> 100,12.5,> 100,12.5,100,25,12.5,12.5,12.5,100,50,6.2,
"C=C1C(=O)c2cc(Br)ccc2OC1c1ccc(Br)cc1 (stereo not drawn) [Ex. 17, 4',6-dibromo-3-methylene flavanone]",100,> 100,100,> 100,100,> 100,50,> 100,6.2,> 100,50,25,12.5,12.5,> 100,> 100,25,MIC (A. fumigatus NRRL 163): > 100 µg/mL
"C=C1C(=O)c2ccccc2OC1c1cccc2ccccc12 (stereo not drawn) [Ex. 23, 3-methylene-2-(1-naphthyl) chromanone]",100,> 100,50,> 100,> 100,> 100,6.2,> 100,≤ 3.1,50,12.5,12.5,6.2,6.2,> 100,> 100,6.2,
"C=C1C(=O)c2ccccc2OC1c1cccc([N+](=O)[O-])c1 (stereo not drawn) [compound 9, 3'-nitro-3-methylene flavanone]",50,100,50,50,50,> 100,6.2,> 100,6.2,50,12.5,6.2,12.5,6.2,100,50,6.2,
"C=C1C(=O)c2ccccc2OC1c1ccc2ccccc2c1 (stereo not drawn) [compound 24, 3-methylene-2-(2-naphthyl) chromanone]",100,> 100,25,> 100,> 100,> 100,12.5,> 100,≤ 3.1,50,25,12.5,12.5,6.2,> 100,> 100,6.2,
